Test results published in patent publication US10842765B2, “Methods of reducing or preventing oxidation of small dense ldl or membrane polyunsaturated fatty acids” (Amarin Pharmaceuticals Ireland Limited, priority 2016, dated 2020).

Key:
human LDL = test: Copper-induced unfractionated LDL oxidation, TBARS, Example 7; type: biochemical; conditions: each agent 10.0 μM; 1 hour
[1] = tested on: small dense LDL (sdLDL) isolated from human subjects; test: Glucose-induced sdLDL oxidation (MDA/TBARS), Example 10; type: biochemical; conditions: 10 μM; glucose 200 mg/dL; 1 hr
Experimental: Vitamin E (α-tocopherol) purchased from Sigma-Aldrich was prepared in ethanol at 1.0 mM (ε=3.06×10^4 M^−1 cm^−1 at 294 nm) prior to experimental use. Test compounds were further diluted in ethanol or aqueous buffer as needed. Phosphate Buffered Saline (PBS) purchased from Sigma-Aldrich was prepared in double distilled water at 10 mM (138 mM NaCl, 2.7 mM KC, pH 7.4). Glucose prepared in PBS was added to test samples to achieve a final concentration of 11.0 mM (200 mg/dL).
LDL and sdLDL were isolated from the plasma of healthy volunteers by iodixanol density gradient ultracentrifugation and adjusted to a final apolipoprotein concentration of 10 mg/mL. […] Sample aliquots were incubated at 100° C. for 30 minutes and then assayed for the formation of thiobarbituric acid-reactive substances (TBARS), having a molar absorptivity (ε) value of 1.56×10^5 M^−1 cm^−1 at 532 nm and were derived principally from the reaction of thiobarbituric acid with malondialdehyde (MDA). Lipid oxidation was measured by the colorimetric detection of malondialdehyde (MDA), a marker of oxidative stress.
Data were presented as mean±SD for (n) separate samples or experiments. Differences between groups were analyzed using the unpaired, two-tailed Student's t-test (for comparisons between only two groups) or ANOVA followed by Student-Newman-Keuls multiple comparisons post hoc analysis (for comparisons between three or more groups). Only differences with probability values less than 0.05 were considered significant.

[2] = Glucose-induced membrane lipid peroxidation (LOOH) in lipid vesicles, Example 4; type: biochemical; conditions: 72- and 96-hour time points; 1:30 drug-to-phospholipid mole ratio; glucose
Experimental: An experiment was conducted to test the ability of EPA to interfere with the effects of high glucose on membrane lipid peroxidation and organization in vesicles enriched with PUFAs. […] Vitamin E (α-tocopherol) was also purchased from Sigma-Aldrich and prepared in ethanol at 1.0 mM (ε=3.06×10^4 M^−1 cm^−1 at 294 nm) just prior to experimental use. […] All test compounds were further diluted in ethanol or aqueous buffer as needed. Glucose was prepared in saline buffer (0.5 mM HEPES, 154 mM NaCl, pH 7.3) at 11.0 mM (200 mg/dL). CHOD-iodide color reagent (stock) was prepared, with slight modification, as described by from El-Saadani et al. (J. […] Samples were shell-dried under nitrogen gas and placed under vacuum for 1 h to remove residual solvent. […] Lipid suspensions were then vortexed for 3 min at ambient temperature to form MLVs. All MLV samples were subjected to time-dependent autoxidation by incubating at 37° C. in an uncovered, shaking water bath. This method allows lipid peroxidation to occur gradually without requiring the use of exogenous initiators. Small aliquots (5-100 μL) of each sample were removed, immediately following MLV preparation (0 hour) and after exposing samples to oxidative conditions for 72 or 96 hour, and combined with 1.0 mL of activated CHOD-iodide color reagent. Aliquot volume was reduced with each successive time point to ensure that spectrophotometric readings were within the optimal adsorption range. Test samples were covered and incubated in darkness at room temperature for at least 4 hr. Sample absorbances were then measured against a CHOD blank at 365 nm using a Beckman DU-640 spectrophotometer. The CHOD colorimetric assay is based on the oxidation of iodide (I^−) by lipid hydroperoxide (LOOH) to form triiodide (I3^−), the quantity of which is directly proportional to the amount of LOOH present in the lipid sample. The molar absorptivity (I3^−) of I3^− is 2.46×10^4 M^−1 cm^−1 at 365 nm. […]

human sdLDL [3] = test: Copper-induced sdLDL oxidation, TBARS after 2 hr, Example 6; type: biochemical; conditions: 1.0 μM to 10.0 μM
Experimental: An experiment to study the antioxidant effect of EPA in small dense […] performed. […] Vitamin E (α-tocopherol) was purchased from Sigma-Aldrich and prepared in ethanol at 1.0 mM (ε=3.06×10^4 M^-1 cm^-1 at 294 nm) just prior to experimental use. All test compounds were further diluted in ethanol or aqueous buffer as needed. Venous blood was collected from healthy volunteers into vacutainer tubes containing sodium EDTA. Plasma was separated by centrifugation at 3000 g for 25 min at 4° C. and adjusted to a density of 1.020 g/mL with KBr. Triglyceride-rich lipoproteins (TGRL) and LDL fractions were then isolated bysequential centrifugation at 70,000 rpm at 4° C. in a Beckman LE-80 ultracentrifuge using a Beckman 50.4Ti rotor (Beckman Coulter, Inc., Fullerton, Calif.). The TGRL fraction (with a relative density of <1.020) was aspirated from the top of the centrifugate and discarded, leaving an LDL-enriched […] relative density of 1.020 to 1.063). […] The sdLDL subfraction was retained for additional experimentation. Plasma and lipoprotein fractions were maintained at 4° C. and protected from excessive exposure to light. […] Differences between groups were analyzed using the two-tailed, Student's t-test (for comparisons between only two groups) or ANOVA followed by Dunnett or Student-Newman-Keuls multiple comparisons post-hoc analysis (for comparisons between three or more groups).

unfractionated LDL = test: Copper-induced unfractionated LDL oxidation, TBARS, Example 6; type: biochemical, human; conditions: 1.0 μM to 10.0 μM; data not shown
Experimental: All test compounds were further diluted in ethanol or aqueous buffer as needed. Venous blood was collected from healthy volunteers into vacutainer tubes containing sodium EDTA. […] Plasma and lipoprotein fractions were maintained at 4° C. and protected from excessive exposure to light. Prior to oxidation experiments, EDTA was removed from the lipoprotein fraction using PD-10 desalting columns (GE Healthcare, Piscataway N.J.). After equilibration of the column with phosphate buffered saline (PBS), 2.5 mL of the lipoprotein fraction was loaded on the column and the flow-through discarded. The lipoprotein was then eluted with 3 mL of PBS. The LDL fractions were further diluted with PBS to obtain a 100 μg/mL apoB100 concentration. […] Differences between groups were analyzed using the two-tailed, Student's t-test (for comparisons between only two groups) or ANOVA followed by Dunnett or Student-Newman-Keuls multiple comparisons post-hoc analysis (for comparisons between three or more groups).

human sdLDL [4] = test: Copper-induced sdLDL oxidation, TBARS, Example 7; type: biochemical; conditions: each agent 10 μM; 1 hr
Experimental: Samples were prepared at 100 μg/mL sdLDL and incubated with EPA or DHA (10.0 μM each) for 30 minutes prior to initiating lipid oxidation using 10 μM CuSO4. Samples were maintained at 37° C. in a shaking water bath for 1 hour. Lipid oxidation was measured by colorimetric assay of TBARS formation and expressed as molar equivalents of MDA.
An experiment to study the antioxidant effect of EPA in LDL and small dense LDL (“sdLDL”) was performed. LDL and sdLDL were isolated from the plasma of healthy volunteers by iodixanol density gradient ultracentrifugation, and adjusted to a final apolipoprotein concentration of 2 mg/mL. […] Lipid oxidation was initiated with 10 μM CuSO4 and monitored by the colorimetric detection of thiobarbituric acid reactive substances (TBARS) for 1 hr. Vitamin E was also incubated with sample aliquots as a positive control.

HMG-CoA reductase = biological target: T1, HMG-CoA reductase (Homo sapiens, UniProt P04035); conditions: primary pharmacokinetic studies; hepatic cytochrome P450 metabolism; cited from earlier work
T1 sequence (P04035 1-888): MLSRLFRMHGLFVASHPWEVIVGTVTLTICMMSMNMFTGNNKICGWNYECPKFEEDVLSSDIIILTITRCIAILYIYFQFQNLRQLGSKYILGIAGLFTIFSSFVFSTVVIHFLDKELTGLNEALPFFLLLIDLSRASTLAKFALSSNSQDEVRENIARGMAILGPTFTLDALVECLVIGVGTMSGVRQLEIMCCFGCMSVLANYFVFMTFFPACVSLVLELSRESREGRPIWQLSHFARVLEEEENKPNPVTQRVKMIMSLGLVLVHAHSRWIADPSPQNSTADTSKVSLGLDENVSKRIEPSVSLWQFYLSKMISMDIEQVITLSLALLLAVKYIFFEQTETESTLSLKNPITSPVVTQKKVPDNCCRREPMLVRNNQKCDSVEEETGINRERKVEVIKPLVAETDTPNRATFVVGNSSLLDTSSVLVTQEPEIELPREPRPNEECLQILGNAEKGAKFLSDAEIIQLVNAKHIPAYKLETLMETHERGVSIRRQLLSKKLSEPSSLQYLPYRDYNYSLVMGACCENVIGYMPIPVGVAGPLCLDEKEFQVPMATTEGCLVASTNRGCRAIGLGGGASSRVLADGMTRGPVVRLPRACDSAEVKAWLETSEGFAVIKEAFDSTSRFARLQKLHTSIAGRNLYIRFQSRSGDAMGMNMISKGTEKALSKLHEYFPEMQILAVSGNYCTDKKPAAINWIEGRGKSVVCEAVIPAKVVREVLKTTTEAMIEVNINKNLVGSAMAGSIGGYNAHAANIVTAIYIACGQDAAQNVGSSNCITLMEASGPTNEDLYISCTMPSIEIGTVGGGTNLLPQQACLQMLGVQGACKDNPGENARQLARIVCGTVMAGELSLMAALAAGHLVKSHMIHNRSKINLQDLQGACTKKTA

Row | Compound | effect on unfractionated LDL oxidation (human LDL) | inhibition of glucose-induced sdLDL oxidation (in words) [1] | effect on LOOH formation / lipid peroxidation [2] | inhibition of sdLDL oxidation (human sdLDL [3]) | inhibition of LDL oxidation (unfractionated LDL) | increase of sdLDL oxidation as compared to glucose-treated controls [1] [%] | inhibition of sdLDL oxidation (TBARS formation) vs vehicle (human sdLDL [4]) [%] | share of circulating HMG-CoA reductase inhibitory activity accounted for by active metabolites (HMG-CoA reductase)
1 | Cc1ccc(C)c(OCCCC(C)(C)C(=O)O)c1 [Gemfibrozil, gemfibrozil] | no significant effect on unfractionated LDL oxidation | did not inhibit glucose-induced sdLDL oxidation | – | – | – | – | – | –
2 | Cc1c(C)c2c(c(C)c1O)CC[C@@](C)(CCC[C@H](C)CCC[C@H](C)CCCC(C)C)O2 [vitamin E, α-tocopherol] | no significant effect on unfractionated LDL oxidation | failed to inhibit sdLDL oxidation | no significant effect on lipid peroxidation | did not inhibit sdLDL oxidation except at the highest concentration | did not inhibit LDL oxidation at any concentration | 63 | – | –
3 | O=C(O)c1cccnc1 [Niacin, nicotinic acid] | no significant effect on unfractionated LDL oxidation | did not inhibit glucose-induced sdLDL oxidation | – | – | – | – | – | –
4 | CC(C)c1c(C(=O)Nc2ccccc2)c(-c2ccccc2)c(-c2ccc(F)cc2)n1CC[C@@H](O)C[C@@H](O)CC(=O)O [atorvastatin] | did not have any significant antioxidant activity | – | – | – | – | – | 0.1±7 | approximately 70%
